Test results published in patent publication US8293781B2, “Indole derivatives having cPLA2 inhibiting activity and applications and production methods of the same” (Daiichi Sankyo Company, Limited, priority 2007, dated 2012).
Where a name gives a salt, the structure may show the parent alone.

How the values were obtained:
[1] = tested on: guinea pig antigen induced bronchial asthma model; experiment: Guinea pig antigen induced bronchial asthma model: infiltrating cells in BALF; type: in vivo
Procedure: (§1) Hartley male guinea pigs (Kyudo Co., Ltd.) were sensitized by inhaling the aerosolized 1% OVA-containing physiological saline solution for consecutive 8 days. One week after the final sensitization, antigen antibody reaction was elicited by inhaling the aerosolized 2% OVA-containing physiological saline solution. 24 hours and 1 hour before antigen challenge, metyrapone (10 mg/kg, 1.0 ml/kg) was injected to the hind limb peripheral vein. 30 minutes before antigen challenge, pyrilamine maleate (10 mg/kg, 1.0 ml/kg) was administered intraperitoneally. The test compound (5 mg/kg and 20 mg/kg, 5.0 ml/kg) was administered once a day from the day after the final sensitization to the day before challenge. On the day of challenge, it was administered orally 1 hour before challenge and 8 hours after challenge. Note that the number of mice used in the test was made eight per group.
The number of cells in a bronchial alveolar lavage fluid was counted after measurement of the airway hyperreactivity. Each guinea pig was exsanguinated under anesthesia, its chest was opened, a cannular was inserted into the trachea, then physiological saline was injected into and sucked out from the lungs to recover the bronchial alveolar lavage fluid (BALF). The BALF was centrifugally separated, the obtained precipitate (pellets) was suspended in physiological saline and the total number of cells per 1 μl was calculated by an automatic blood cell counting system (Sysmex F-820). The total number of cells was calculated, then the sample was again centrifugally separated and the obtained pellets were hemolyzed, diluted, centrifuged, and dried, then stained by May-Greenwald's-Giemsa dye. Using a microscope, the ratios of the macrophages, eosinophil granulocytes, neutrophils, and lymphocytes to the total blood cell count (total number of cells) were found and the ratios used to calculate the numbers of cells per μl. The inhibiting rate was found as a percent (%) of the value of the number of cells of the control vehicle administered group minus the number of cells of each compound administered group with respect to the value of the number of cells of the vehicle administered group minus the number of cells of the negative control saline inhalation group.

[2] = tested on: guinea pig antigen induced bronchial asthma model; experiment: Guinea pig antigen induced bronchial asthma model: airway hyperreactivity to acetyl choline; type: in vivo; details: 22 to 24 hours after inducement
Procedure: as §1
The airway hyperreactivity was measured 22 to 24 hours after inducement. Physiological saline solution and acetyl choline in 0.0625, 0.125, 0.25, 0.5, 1, and 2 mg/ml amounts in physiological saline solutions were successively nebulized and made to be inhaled by guinea pigs 1 minute at a time each, then the sRaw was measured by a total respiratory function analysis system (Pulmos-I, made by M.I.P.S.) The results of evaluation of typical compounds are shown in Table 9 for different acetyl choline concentrations (PC100Ach, mg/ml) inducing 100% airway resistance.

[3] = tested on: guinea pig antigen induced bronchial asthma model; experiment: Guinea pig antigen induced bronchial asthma model: airway resistance (IAR, LAR); type: in vivo; details: for IAR suppression rate (airway resistance): immediate asthmatic response, 1 minute after challenge; for LAR suppression rate (airway resistance): late asthmatic response, AUC 4 to 8 hours
Procedure: as §1
The airway resistance (sRaw) was measured using a total respiratory function analysis system (Pulmos-I, made by M.I.P.S.) before antigen challenge, 1 minute after finishing the antigen challenge, and 2, 4, 5, 6, 7, 8, and 22 to 24 hours after antigen challenge. […] The late asthmatic response (LAR) was evaluated by calculating the AUC from the rate of change 4 to 8 hours after inducement based on the measurement values and finding the value obtained by subtratcting the AUC of each compound administered group from the AUC of the vehicle administered group with the control inhibition rate as a percent (%) with respect to the value of the vehicle administered group. The rates of suppression of typical compounds with respect to the increases in airway resistances in immediate asthmatic response (IAR) and late asthmatic response (LAR) are shown in Table 8.

[4] = tested on: rats; experiment: Repeated oral administration to rats once a day over two weeks (toxicity); type: in vivo, rat; details: once a day over two weeks repeatedly orally
Procedure: Further, the present invention compound (I) or its salts or their solvates have low toxicity. In experiments administering the compound of Example 231 of the present invention to rats once a day over two weeks repeatedly orally, the nontoxic amount was 180 mg/kg/day.

| SMILES | Inhibitory rate of infiltrating cells in BALF: Eosinophils ([1]; 5 mg/kg oral) [%] | Inhibitory rate of infiltrating cells in BALF: Lymphocytes ([1]; 5 mg/kg oral) [%] | Inhibitory rate of infiltrating cells in BALF: Macrophages ([1]; 5 mg/kg oral) [%] | Inhibitory rate of infiltrating cells in BALF: Neutrophils ([1]; 5 mg/kg oral) [%] | Inhibitory rate of infiltrating cells in BALF: Total number of cells ([1]; 5 mg/kg oral) [%] | Inhibitory rate of infiltrating cells in BALF: Eosinophils ([1]; 20 mg/kg oral) [%] | Inhibitory rate of infiltrating cells in BALF: Lymphocytes ([1]; 20 mg/kg oral) [%] | Inhibitory rate of infiltrating cells in BALF: Macrophages ([1]; 20 mg/kg oral) [%] | Inhibitory rate of infiltrating cells in BALF: Neutrophils ([1]; 20 mg/kg oral) [%] | Inhibitory rate of infiltrating cells in BALF: Total number of cells ([1]; 20 mg/kg oral) [%] | PC100ACh (acetyl choline concentration inducing 100% airway resistance) ([2]; 5 mg/kg oral) [mg/mL] | PC100ACh (acetyl choline concentration inducing 100% airway resistance) ([2]; 20 mg/kg oral) [mg/mL] | IAR suppression rate (airway resistance) ([3]; 5 mg/kg oral) [%] | LAR suppression rate (airway resistance) ([3]; 5 mg/kg oral) [%] | IAR suppression rate (airway resistance) ([3]; 20 mg/kg oral) [%] | LAR suppression rate (airway resistance) ([3]; 20 mg/kg oral) [%] | nontoxic amount [4] [mg/kg/day] |
| --- | --- | --- | --- | --- | --- | --- | --- | --- | --- | --- | --- | --- | --- | --- | --- | --- | --- |
| O=C(O)CCc1ccc2c(c1)c(CCc1ccccc1)cn2-c1ccc(OC(F)F)cc1 [Example 190, 3-{1-[4-(difluoromethoxy)phenyl]-3-(2-phenylethyl)-1H-indol-5-yl}propanoic acid 2-amino-2-(hydroxymethyl)propane-1,3-diol salt (1:1)] | 41 | 30 | 66 | 0 | 33 | 76 | 42 | 76 | 37 | 62 | 0.57 | 0.50 | 2 | 46 | 2 | 42 |  |
| O=C(O)CCc1ccc2c(c1)c(CCc1ccccc1)cn2-c1ccc(OCCO)cc1 [Example 229, 3-{1-[4-(2-hydroxyethoxy)phenyl]-3-(2-phenylethyl)-1H-indol-5-yl}propanoic acid 2-amino-2-(hydroxymethyl)propane-1,3-diol salt (1:1)] | 51 | 11 | 58 | 0 | 30 | 46 | 12 | 46 | 16 | 35 | 0.47 | 0.74 | 15 | 22 | 33 | 37 |  |
| O=C(O)CCc1ccc2c(c1)c(CCc1ccccc1)cn2-c1ccc(Oc2ccccc2)cc1 [Example 231, 3-[1-(4-phenoxyphenyl)-3-(2-phenylethyl)-1H-indol-5-yl]propanoic acid 2-amino-2-(hydroxymethyl)propane-1,3-diol salt (1:1)] | 58 | 45 | 80 | 38 | 58 | 69 | 55 | 85 | 64 | 72 | 1.02 | 1.09 | 21 | 45 | 59 | 78 | 180 |
